Literature values as cited in PMC10967909, “Targeted Delivery of Abaloparatide to Spinal Fusion Site Accelerates Fusion Process in Rats” (Biomedicines, 2024).

B1: Ab46-D-Glu20: variant of abaloparatide linked to a linear 20 mer of D-glutamic acid that naturally accumulates on exposed hydroxyapatite (protein)
chain: AVSEHQLLHDKGKSIQDLRRRELLEKLLAKLHTAEIRATSEVSPNSEEEEEEEEEEEEEEEEEEEE
modifications: The C-terminal 20 Glu are all D-residues (linear D-Glu20, described in the text as a 20 mer of D-glutamic acid); Ab46 is tak

Tests used:
[1] = biological target: T1, PTH1R (UMR-106 cells) (Rattus norvegicus, UniProt P25961); details: UMR 106 cells treated with drug for 1 h; Figure 2A legend, adapted; ref Low et al., 2022 [20]; read-out: EC50 (cAMP Glo assay)
T1 construct: evaluated in UMR-106 cells (ATCC, Manassas, VA, USA) which express PTH1R; host or cells: UMR-106 cells
T1 sequence (P25961 27-591): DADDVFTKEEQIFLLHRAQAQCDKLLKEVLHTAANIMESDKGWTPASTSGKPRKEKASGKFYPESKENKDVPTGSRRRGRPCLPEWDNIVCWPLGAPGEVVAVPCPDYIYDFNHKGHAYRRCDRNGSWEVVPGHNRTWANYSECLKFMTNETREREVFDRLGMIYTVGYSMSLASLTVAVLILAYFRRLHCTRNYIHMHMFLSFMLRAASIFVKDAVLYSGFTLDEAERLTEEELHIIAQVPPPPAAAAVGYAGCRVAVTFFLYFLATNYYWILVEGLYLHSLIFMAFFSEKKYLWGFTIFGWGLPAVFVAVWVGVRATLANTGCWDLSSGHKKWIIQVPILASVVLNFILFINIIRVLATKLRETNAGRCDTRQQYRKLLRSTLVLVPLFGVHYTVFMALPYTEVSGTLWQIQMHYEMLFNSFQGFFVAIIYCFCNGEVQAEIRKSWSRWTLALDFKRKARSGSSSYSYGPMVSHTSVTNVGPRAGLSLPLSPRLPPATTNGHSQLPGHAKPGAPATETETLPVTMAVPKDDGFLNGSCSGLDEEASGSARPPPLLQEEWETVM

[2] = Description: A second question that logically arose is whether abaloparatide constituted the ideal payload for accelerating the fusion process. Although the PTH1R agonist, abaloparatide, has been well established as a bone anabolic agent, it is only clinically approved for treating osteoporosis. Most of abaloparatide’s applications have been limited to promoting systemic changes throughout the skeleton to reduce fracture risk.

Row | Molecule | EC50 [1] [nM] | trabecular bone growth, clinical ([2]; clinically) | fracture repair efficacy of nontargeted abaloparatide ([2]; past efforts, ref not given) | trabecular bone growth, preclinical ([2]; preclinically)
1 | abaloparatide | 0.66 | promote trabecular bone growth | unsuccessful due to the lack of efficacy at systemically tolerable doses | promote trabecular bone growth
2 | B1 | 0.48 | – | – | –
